Numbered stars: 1 amine (or outer) side, 2 acyl side, 3 side chain; on linkers, the order of the positions; unused ones are H or OH. Bridge positions count the residues as written; N and C are the ends. Square brackets hold non-standard residues; d marks the D form. Peptide text beside a SMILES is read from it. * marks the point of attachment. Phe(3-CF3) = N[C@@H](Cc1cccc(C(F)(F)F)c1)C(=O)O; Phe(4-COOH) = N[C@@H](Cc1ccc(C(=O)O)cc1)C(=O)O; Bip = N[C@@H](Cc1ccc(-c2ccccc2)cc1)C(=O)O; NH(CH2)14COOH = O=C(O)CCCCCCCCCCCCCCN*; Phe(3-Me) = Cc1cccc(C[C@H](N)C(=O)O)c1; Phe(4-F) = N[C@@H](Cc1ccc(F)cc1)C(=O)O; X19 = O=C([C@@H]1CC(O)CN1[*:1])[*:2]; Val(3-OH) = CC(C)(O)[C@H](N)C(=O)O; hArg = N=C(N)NCCCC[C@H](N)C(=O)O; 4Pal = N[C@@H](Cc1ccncc1)C(=O)O; Cha = N[C@@H](CC1CCCCC1)C(=O)O; Carboxymethyl = O=C(O)C*; Orn = NCCC[C@H](N)C(=O)O; Aun = NCCCCCCCCCCC(=O)O; Dab = NCC[C@H](N)C(=O)O; Dap = NC[C@H](N)C(=O)O; AEEA = NCCOCCOCC(=O)O; Ac3c = NC1(C(=O)O)CC1
Molecular target: T1, PD-1/PD-L1 interaction (PE-labeled human PD-L1-Ig binding to Jurkat cell line over-expressing human PD-1) (Homo sapiens, UniProt Q15116)
T1 construct: expressed in transfected cells; host or cells: Jurkat
T1 sequence (Q15116 25-288): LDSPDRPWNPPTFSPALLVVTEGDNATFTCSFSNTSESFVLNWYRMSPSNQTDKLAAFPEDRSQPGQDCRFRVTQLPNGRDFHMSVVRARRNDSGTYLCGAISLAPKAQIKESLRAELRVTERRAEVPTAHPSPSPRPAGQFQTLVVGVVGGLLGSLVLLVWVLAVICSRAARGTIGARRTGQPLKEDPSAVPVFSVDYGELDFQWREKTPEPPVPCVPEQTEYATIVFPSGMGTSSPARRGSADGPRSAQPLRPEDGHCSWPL
Assay: Jurkat-PD-1 Cell Binding High-Content Screening Assay (CBA)
Type: cell-based
Conditions: Jurkat cell line over-expressing human PD-1; PE-labeled PD-L1-Ig 20 nM final; read-out: Jurkat hPD1-PDL1 IC50
Outline: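 Jurkat cells over-expressing human PD-1 (8×10^3 per well, DMEM/10% FCS) preincubated with compound 2 h at 37° C, then PE-labeled human PD-L1-Ig (20 nM final) added for 1 h. Cells fixed with paraformaldehyde, Hoechst-stained, and bound fluorescence quantified by high-content imaging.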

Structure (SMILES)	IC50 [nM]
CC(C)C[C@H]1NC(=O)[C@H](CCCN)NC(=O)[C@H](C(C)C)NC(=O)[C@H](Cc2ccc(-c3ccccc3)cc2)NC(=O)[C@H](C(C)C)NC(=O)[C@H](Cc2c[nH]c3ccccc23)NC(=O)[C@H](CC(=O)O)NC(=O)[C@H](Cc2c[nH]cn2)NC(=O)[C@H](CCCCNC(=N)N)NC(=O)CSC[C@@H](C(=O)N[C@@H](CCN)C(=O)NCCCCCCCCCCC(=O)O)NC(=O)[C@@H]2CC(O)CN2C(=O)[C@H](C(C)C)NC(=O)[C@H](CC2CCCCC2)NC(=O)[C@H](CCN)NC1=O (stereo partly drawn) [Compound 3274] ({CH2CO}-[hArg]HDWV[Bip]V[Orn][dL][Dab][Cha]V[X19]C[Dab][Aun]-OH; thioether N-14)	411
CC(C)C[C@H]1NC(=O)[C@H](CCCN)NC(=O)[C@H](Cc2ccc(C(=O)O)cc2)NC(=O)[C@H](Cc2ccc(-c3ccccc3)cc2)NC(=O)[C@H](Cc2ccc(C(=O)O)cc2)NC(=O)[C@H](Cc2cccc(C(F)(F)F)c2)NC(=O)[C@H](CC(=O)O)NC(=O)[C@H](Cc2ccc(OCC(=O)O)cc2)NC(=O)[C@H](Cc2ccc(OCC(=O)O)cc2)NC(=O)CSC[C@@H](C(=O)N[C@@H](CCN)C(=O)NCCOCCOCC(=O)NCCOCCOCC(=O)NCCCCCCCCCCCCCCC(=O)O)NC(=O)[C@H](CO)NC(=O)[C@H](C(C)(C)O)NC(=O)[C@H](CC2CCCCC2)NC(=O)[C@H](CCN)NC1=O [Compound 3839] ({CH2CO}-Y(Carboxymethyl)Y(Carboxymethyl)D[Phe(3-CF3)][Phe(4-COOH)][Bip][Phe(4-COOH)][Orn][dL][Dab][Cha][Val(3-OH)]SC[Dab][AEEA][AEEA]-{NH(CH2)14COOH}; thioether N-14)	178
COc1ccc(C[C@@H]2NC(=O)CSC[C@@H](C(=O)N[C@@H](CCN)C(=O)NCCCCCCCCCCC(=O)O)NC(=O)[C@H](CO)NC(=O)[C@H](C(C)(C)O)NC(=O)[C@H](CC3CCCCC3)NC(=O)[C@H](CCN)NC(=O)[C@@H](CC(C)C)NC(=O)[C@H](CCCN)NC(=O)[C@H](Cc3ccc(OCC(=O)O)cc3)NC(=O)[C@H](Cc3ccc(-c4ccccc4)cc3)NC(=O)[C@H](Cc3ccc(OCC(=O)O)cc3)NC(=O)[C@H](Cc3cccc(C)c3)NC(=O)[C@H](CC(=O)O)NC(=O)[C@H](Cc3ccc(OCC(=O)O)cc3)NC2=O)cc1 [Compound 2181] ({CH2CO}-Y(Me)Y(Carboxymethyl)D[Phe(3-Me)]Y(Carboxymethyl)[Bip]Y(Carboxymethyl)[Orn][dL][Dab][Cha][Val(3-OH)]SC[Dab][Aun]-OH; thioether N-14)	17.7
Cc1cccc(C[C@@H]2NC(=O)[C@H](CC(=O)O)NC(=O)[C@H](Cc3ccc(OCC(=O)O)cc3)NC(=O)[C@H](CCN)NC(=O)CSC[C@@H](C(=O)N[C@@H](CCN)C(=O)NCCCCCCCCCCC(=O)O)NC(=O)[C@H](CO)NC(=O)[C@H](C(C)(C)O)NC(=O)[C@H](CC3CCCCC3)NC(=O)[C@H](Cc3cnc[nH]3)NC(=O)[C@@H](CC(C)C)NC(=O)[C@H](CCCN)NC(=O)[C@H](Cc3ccc(OCC(=O)O)cc3)NC(=O)[C@H](Cc3ccc(-c4ccccc4)cc3)NC(=O)[C@H](Cc3ccc(F)cc3)NC2=O)c1 [Compound 3731] ({CH2CO}-[Dab]Y(Carboxymethyl)D[Phe(3-Me)][Phe(4-F)][Bip]Y(Carboxymethyl)[Orn][dL]H[Cha][Val(3-OH)]SC[Dab][Aun]-OH; thioether N-14)	16.9
Cc1cccc(C[C@@H]2NC(=O)[C@H](CC(=O)O)NC(=O)[C@H](Cc3ccc(OCC(=O)O)cc3)NC(=O)[C@H](CN)NC(=O)CSC[C@@H](C(=O)N[C@@H](CCN)C(=O)NCCOCCOCC(=O)NCCCCCCCCCCC(=O)O)NC(=O)[C@H](CO)NC(=O)[C@H](Cc3ccc(O)cc3)NC(=O)[C@H](CC3CCCCC3)NC(=O)[C@H](CCN)NC(=O)[C@@H](CC(C)C)NC(=O)[C@H](CCCN)NC(=O)[C@H](Cc3ccc(O)cc3)NC(=O)[C@H](Cc3ccc(-c4ccccc4)cc3)NC(=O)[C@H](Cc3ccc(O)cc3)NC2=O)c1 [Compound 2570] ({CH2CO}-[Dap]Y(Carboxymethyl)D[Phe(3-Me)]Y[Bip]Y[Orn][dL][Dab][Cha]YSC[Dab][AEEA][Aun]-OH; thioether N-14)	31.9

Results, then the compound that gave them:

IC50 [nM]	Structure (SMILES)
25	CC(C)C[C@H]1NC(=O)[C@H](CCCN)NC(=O)[C@H](C(C)C)NC(=O)[C@H](Cc2ccc(-c3ccccc3)cc2)NC(=O)[C@H](C(C)C)NC(=O)[C@H](Cc2c[nH]c3ccccc23)NC(=O)[C@H](CC(=O)O)NC(=O)[C@H](Cc2ccc(OCC(=O)O)cc2)NC(=O)[C@H](CN)NC(=O)CSC[C@@H](C(=O)N[C@@H](C)C(=O)N[C@@H](CCC(=O)O)C(=O)NCC(=O)NCCCCCCCCCCC(=O)O)NC(=O)[C@H]([C@@H](C)O)NC(=O)[C@H](C(C)C)NC(=O)[C@H](CC2CCCCC2)NC(=O)[C@H](Cc2c[nH]cn2)NC1=O [Compound 1088] ({CH2CO}-[Dap]Y(Carboxymethyl)DWV[Bip]V[Orn][dL]H[Cha]VTCAEG[Aun]-OH; thioether N-14)
89.8	Cc1cccc(C[C@@H]2NC(=O)[C@H](CC(=O)O)NC(=O)[C@H](Cc3ccc(OCC(=O)O)cc3)NC(=O)[C@H](Cc3ccc(OCC(=O)O)cc3)NC(=O)CSC[C@@H](C(=O)N[C@@H](CCN)C(=O)NCCCCCCCCCCC(=O)O)NC(=O)[C@H](CO)NC(=O)[C@H](C(C)C)NC(=O)[C@H](CC3CCCCC3)NC(=O)[C@H](CCN)NC(=O)[C@@H](CC(C)C)NC(=O)[C@H](CCCN)NC(=O)[C@H](C(C)C)NC(=O)[C@H](Cc3ccc(-c4ccccc4)cc3)NC(=O)[C@H](CC(C)C)NC2=O)c1 [Compound 1060] ({CH2CO}-Y(Carboxymethyl)Y(Carboxymethyl)D[Phe(3-Me)]L[Bip]V[Orn][dL][Dab][Cha]VSC[Dab][Aun]-OH; thioether N-14)
7.7	CC[C@H](C)[C@@H]1NC(=O)[C@H](Cc2ccc(-c3ccccc3)cc2)NC(=O)[C@H](C(C)C)NC(=O)[C@H](Cc2c[nH]c3ccccc23)NC(=O)[C@H](CC(=O)O)NC(=O)[C@H](Cc2ccc(OCC(=O)O)cc2)NC(=O)[C@H](Cc2ccncc2)NC(=O)CSC[C@@H](C(=O)N[C@@H](CCCN)C(=O)NCCOCCOCC(=O)NC2(C(=O)NCCCCCCCCCCC(=O)O)CC2)NC(=O)[C@H](CN)NC(=O)[C@H](C(C)C)NC(=O)[C@H](CC(C)C)NC(=O)[C@H](CCN)NC(=O)[C@@H](CC(C)C)NC(=O)[C@H](CCCN)NC1=O [Compound 2006] ({CH2CO}-[4Pal]Y(Carboxymethyl)DWV[Bip]I[Orn][dL][Dab]LV[Dap]C[Orn][AEEA][Ac3c][Aun]-OH; thioether N-14)
21	CC[C@H](C)[C@@H]1NC(=O)[C@H](Cc2ccc(-c3ccccc3)cc2)NC(=O)[C@H](C(C)C)NC(=O)[C@H](Cc2c[nH]c3ccccc23)NC(=O)[C@H](CC(=O)O)NC(=O)[C@H](Cc2ccc(OCC(=O)O)cc2)NC(=O)[C@H](Cc2ccncc2)NC(=O)CSC[C@@H](C(=O)N[C@@H](CCCCN)C(=O)NCCOCCOCC(=O)NCCCCCCCCCCC(=O)O)NC(=O)[C@H]([C@@H](C)O)NC(=O)[C@H](C(C)C)NC(=O)[C@H](CC(C)C)NC(=O)[C@H](CCN)NC(=O)[C@@H](CC(C)C)NC(=O)[C@H](CCCN)NC1=O [Compound 1160] ({CH2CO}-[4Pal]Y(Carboxymethyl)DWV[Bip]I[Orn][dL][Dab]LVTCK[AEEA][Aun]-OH; thioether N-14)

Reference: patent publication US20260022142A1, “MACROCYCLIC IMMUNOMODULATORS” (Bristol-Myers Squibb Company, priority 2022, published 2026)
